From US20150198612A1, “Isotopic Labelling of Proteins” (UNIVERSITY OF DUNDEE, priority 2012, published 2015) come the findings set out here.

In data set [1] the test system is drug metabolism related proteins. As to the kind of experiment: LC-MS/MS protein expression profile of liver from induced mice (Example 1). The data set is classed as in vivo. To be noted: wild type mice liver; once daily i.p. for 3 days; TCPOBOP 1 mg/kg; versus corn oil; FIG. 3. Here is the method: In order to generate a drug metabolism-enhanced SILAC model, the protein expression profiles of liver from animals induced with TCPOBOP (1 mg/kg) or pregnenolone 16α-carbonitrile (PCN) or vehicle were examined. […] Animals were sacrificed 3 days after dosing, liver tissue excised and snap-frozen in liquid nitrogen for storage at −80° C.
Frozen liver tissue was thawed by addition of 10 volumes SDT lysis buffer (4% SDS, 0.1M DTT, 100 mM Tris-HCl pH 7.6) then homogenised by rotor-stator (2×5 sec at 20 k revolutions). Homogenate was heated to 95° C. for 5 minutes, sonicated (2×5 sec), then centrifuged at 16,000×g for 10 minutes. Supernatant (protein sample for analysis) was removed, aliquoted and stored at −80° C. until use. Protein samples (total of 30 μg/well) were electrophoresed through a 12% bis-tris gel in MOPS running buffer supplemented with antioxidant (all Life Technologies, Paisley, UK) alongside a Spectra multicolour broad range protein ladder (Thermo Fisher Scientific, Waltham, Mass.). Gels were stained with coomassie blue, destained, and then rehydrated with Milli-Q water. […] Peptide sample concentration was determined by Nanodrop (Thermo Fisher Scientific) and adjusted to 0.2 mg/mL in water containing 0.1% (vol/vol) trifluoroacetic acid. […] Data were analysed using SIEVE software in conjunction with Mascot database search engine. […]

In data set [2] the test system is Cyp2B10. Kind of data set: SILAM LC-MS/MS quantification of Cyp2B10 in mouse liver (Example 2). The following applies: for L/H ratio of Cyp2B10 peptide NLQELLDYIGHSVEK: mice treated 1 mg/kg. The procedure: This experiment was conducted to test the utility of the drug metabolism-enhanced reference in an actual SILAM protocol in comparison to normal SILAM protocol.
Liver protein extracts from wild type mice treated with TCPOBOP (1 mg/kg) or Ethoxyquin (1 mg/kg) or corn oil (control) were spiked with liver heavy protein extract from normal SILAM mice or drug metabolism pathway-enhanced SILAM mice according to the present invention.

The test system of data set [3] is drug metabolism enzymes. To be noted: mouse, in vivo.
The test system of data set [4] is Cyp4a. Kind of data set: Western blot of liver drug metabolism enzymes, Cyp4a. To be noted: C57BL/6 mice liver, once daily i.p. for 3 days, single inducer. A general note: A western blot detects proteins with antibodies after separation by electrophoresis.
In data set [5] the test system is Cyp3a. The following applies: mouse, in vivo, ip.
Data set [6] relates to inflammation related proteins. As to the kind of experiment: LC-MS/MS of lung proteins after LPS treatment (Example 3). Type of data set: in vivo. To be noted: male C57BL/6 mice, single i.p. injection 100 μg, lung 24 hours after dosing. Here is the method:
Male C57BL/6 mice were given a single intraperitoneal injection of lipopolysaccharide (LPS; 100 μg) or vehicle and tissues were harvested 24 hours after dosing. Lung tissues were lysed in 2% SDS buffer by ultrasonic probe and proteins extracted were resolved onto a SDS-PAGE, followed by a filter assisted trypsin digestion procedure. The protein digests were analysed by LC-MS/MS and the data were analysed using Peaks software for database search and Progenesis for quantification.

On to `Clc1cnc(Oc2ccc(Oc3ncc(Cl)cc3Cl)cc2)c(Cl)c1` [TCPOBOP], for which the “expression of drug metabolism related proteins relative to the total ion current” value in data set [1] is “significantly increased the expression of many of these proteins”. The “Cyp2B10 expression relative to Ethoxyquin” value in data set [2] (from L/H ratios, pathway-enhanced SILAM) worked out at 4 fold. Further, the “levels of the low-abundance cytochrome protein Cyp2B10” value in data set [2] (general statement) is on record as “efficiently increase levels”. Besides, the “L/H ratio of Cyp2B10 peptide NLQELLDYIGHSVEK” value is given as 2.50 in data set [2] (liver extract spiked with drug metabolism pathway-enhanced SILAM heavy liver extract, control L/H=0) and “infinite” in data set [2] (liver extract spiked with normal SILAM heavy extract (no heavy peptide signal)). Further, the “expression of proteins examined” value in data set [3] was “enhanced significantly the expression of many proteins examined except for Cyp2e and Homx1”. In addition, the Cyp4a expression result in data set [4] was “moderate”.

Take `CC(=O)[C@H]1[C@H](C#N)C[C@H]2[C@@H]3CC=C4C[C@@H](O)CC[C@]4(C)[C@H]3CC[C@@]21C` [PCN, pregnenolone 16α-carbonitrile]: in data set [1], the “expression of drug metabolism related proteins relative to the total ion current” value is given as “to a lesser extent, PCN, significantly increased the expression of many of these proteins”. Besides, in data set [5], the Cyp3a protein expression entry is “noticeable”. The “change to other Cyp proteins examined (other than Cyp3a)” value in data set [3] (ip) was “no change”.

Turning to lipopolysaccharide [LPS], the “number of inflammation related proteins in the lung that can be quantified using the enhanced SILAM” value in data set [6] is recorded as “more than 100”. Besides, the “induction of the lung proteins listed in Table 4” value in data set [6] (versus vehicle) was “more than 5 times”.
